Data: BindingDB's records for doi:10.1016/j.bmcl.2005.07.039 (Universit&#233, 2005)

Biological target: Sigma non-opioid intracellular receptor 1 (Cavia porcellus) (UniProt Q60492)
Test: Inhibitory activity against Opioid receptor sigma 1 in guinea pig cerebral cortex using [3H](+)-pentazocine as radio ligand at pH 7.5 for 150 min at 22 C

Sequence of Sigma non-opioid intracellular receptor 1 (Cavia porcellus) (Q60492 whole entry, looked up): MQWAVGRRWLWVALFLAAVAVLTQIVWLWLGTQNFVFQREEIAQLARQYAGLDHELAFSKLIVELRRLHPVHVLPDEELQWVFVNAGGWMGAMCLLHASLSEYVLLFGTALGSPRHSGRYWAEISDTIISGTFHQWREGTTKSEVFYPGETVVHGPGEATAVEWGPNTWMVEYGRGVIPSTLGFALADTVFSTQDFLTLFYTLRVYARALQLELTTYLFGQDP

| SMILES | IC50 [nM] |
| --- | --- |
| CN(CCCCCCn1c(O)c2n(c1=O)Cc1ccccc1C2)CCc1ccccc1 [(S)-2-[6-(Methyl-phenethyl-amino)-hexyl]-10,10a-dihydro-5H-imidazo[1,5-b]isoquinoline-1,3-dione] | 29.5 |

Biological target: Sigma non-opioid intracellular receptor 1 (Cavia porcellus) (UniProt Q60492)
Test: Inhibitory activity against opioid receptor sigma 1 in guinea pig cerebral cortex using [3H](+)-pentazocine as radio ligand at pH 7.5 for 150 min at 22 degree C

| SMILES | IC50 [nM] |
| --- | --- |
| CN(C)CCCN1CCN(CCCn2c(O)c3n(c2=O)Cc2ccccc2C3)CC1 [(S)-2-{3-[4-(3-Dimethylamino-propyl)-piperazin-1-yl]-propyl}-10,10a-dihydro-5H-imidazo[1,5-b]isoquinoline-1,3-dione] | > 100 |
| CN(CCc1ccccc1)CCn1c(O)c2n(c1=O)Cc1ccccc1C2 [(S)-2-[2-(Methyl-phenethyl-amino)-ethyl]-10,10a-dihydro-5H-imidazo[1,5-b]isoquinoline-1,3-dione] | 12.6 |
| CN(CCCCCc1ccccc1)CCn1c(O)c2n(c1=O)Cc1ccccc1C2 [(S)-2-{2-[Methyl-(5-phenyl-pentyl)-amino]-ethyl}-10,10a-dihydro-5H-imidazo[1,5-b]isoquinoline-1,3-dione] | 2.9 |
| CN(C)CCCN1CCN(CCn2c(O)c3n(c2=O)Cc2ccccc2C3)CC1 [(S)-2-{2-[4-(3-Dimethylamino-propyl)-piperazin-1-yl]-ethyl}-10,10a-dihydro-5H-imidazo[1,5-b]isoquinoline-1,3-dione] | > 1000 |
| CN(CCCCCn1c(O)c2n(c1=O)Cc1ccccc1C2)Cc1ccccc1 [(S)-2-[5-(Benzyl-methyl-amino)-pentyl]-10,10a-dihydro-5H-imidazo[1,5-b]isoquinoline-1,3-dione] | 5 |
| O=c1n(CCCNC2CCN(Cc3ccccc3)CC2)c(O)c2n1Cc1ccccc1C2 [(S)-2-[3-(1-Benzyl-piperidin-4-ylamino)-propyl]-10,10a-dihydro-5H-imidazo[1,5-b]isoquinoline-1,3-dione] | 82.3 |
| CN(CCCCn1c(O)c2n(c1=O)Cc1ccccc1C2)Cc1ccccc1 [(S)-2-[4-(Benzyl-methyl-amino)-butyl]-10,10a-dihydro-5H-imidazo[1,5-b]isoquinoline-1,3-dione] | 4.2 |
| O=c1n(CCCNCc2ccccc2)c(O)c2n1Cc1ccccc1C2 [(S)-2-(3-Benzylamino-propyl)-10,10a-dihydro-5H-imidazo[1,5-b]isoquinoline-1,3-dione] | 9.6 |
| CC(C)NC(=O)CN1CCN(CCn2c(O)c3n(c2=O)Cc2ccccc2C3)CC1 [2-{4-[2-((S)-1,3-Dioxo-1,5,10,10a-tetrahydro-imidazo[1,5-b]isoquinolin-2-yl)-ethyl]-piperazin-1-yl}-N-isopropyl-acetamide] | > 100 |
| O=c1n(CCCNCCCCc2ccccc2)c(O)c2n1Cc1ccccc1C2 [(S)-2-[3-(4-Phenyl-butylamino)-propyl]-10,10a-dihydro-5H-imidazo[1,5-b]isoquinoline-1,3-dione] | 10.5 |
| CN(CCn1c(O)c2n(c1=O)Cc1ccccc1C2)Cc1ccccc1 [(S)-2-[2-(Benzyl-methyl-amino)-ethyl]-10,10a-dihydro-5H-imidazo[1,5-b]isoquinoline-1,3-dione] | 4.5 |
| CN(CCCCCn1c(O)c2n(c1=O)Cc1ccccc1C2)CCc1ccccc1 [(S)-2-[5-(Methyl-phenethyl-amino)-pentyl]-10,10a-dihydro-5H-imidazo[1,5-b]isoquinoline-1,3-dione] | 11.7 |
| CN1CCN(CCn2c(O)c3n(c2=O)Cc2ccccc2C3)CC1 [(S)-2-[2-(4-Methyl-piperazin-1-yl)-ethyl]-10,10a-dihydro-5H-imidazo[1,5-b]isoquinoline-1,3-dione] | > 100 |
| O=c1n(CCCN2CCN(Cc3ccc4c(c3)OCO4)CC2)c(O)c2n1Cc1ccccc1C2 [(S)-2-[3-(4-Benzo[1,3]dioxol-5-ylmethyl-piperazin-1-yl)-propyl]-10,10a-dihydro-5H-imidazo[1,5-b]isoquinoline-1,3-dione] | 23.8 |
| CN(CCCCCCn1c(O)c2n(c1=O)Cc1ccccc1C2)Cc1ccccc1 [(S)-2-[6-(Benzyl-methyl-amino)-hexyl]-10,10a-dihydro-5H-imidazo[1,5-b]isoquinoline-1,3-dione] | 9.4 |
| O=c1n(CCN2CCN(CCO)CC2)c(O)c2n1Cc1ccccc1C2 [(S)-2-{2-[4-(2-Hydroxy-ethyl)-piperazin-1-yl]-ethyl}-10,10a-dihydro-5H-imidazo[1,5-b]isoquinoline-1,3-dione] | > 100 |
| CN(CCCc1ccccc1)CCn1c(O)c2n(c1=O)Cc1ccccc1C2 [(S)-2-{2-[Methyl-(3-phenyl-propyl)-amino]-ethyl}-10,10a-dihydro-5H-imidazo[1,5-b]isoquinoline-1,3-dione] | 13.6 |
| O=c1n(CCCN2CCN(CCO)CC2)c(O)c2n1Cc1ccccc1C2 [(S)-2-{3-[4-(2-Hydroxy-ethyl)-piperazin-1-yl]-propyl}-10,10a-dihydro-5H-imidazo[1,5-b]isoquinoline-1,3-dione] | > 100 |
| CN(CCCCn1c(O)c2n(c1=O)Cc1ccccc1C2)CCc1ccccc1 [(S)-2-[4-(Methyl-phenethyl-amino)-butyl]-10,10a-dihydro-5H-imidazo[1,5-b]isoquinoline-1,3-dione] | 9.9 |
| O=c1n(CCCN2CCN(Cc3ccccc3)CC2)c(O)c2n1Cc1ccccc1C2 [(S)-2-[3-(4-Benzyl-piperazin-1-yl)-propyl]-10,10a-dihydro-5H-imidazo[1,5-b]isoquinoline-1,3-dione] | 32 |
| CN(CCCn1c(O)c2n(c1=O)Cc1ccccc1C2)CCc1ccccc1 [(S)-2-[3-(Methyl-phenethyl-amino)-propyl]-10,10a-dihydro-5H-imidazo[1,5-b]isoquinoline-1,3-dione] | 2.1 |
| CN1CCN(CCCn2c(O)c3n(c2=O)Cc2ccccc2C3)CC1 [(S)-2-[3-(4-Methyl-piperazin-1-yl)-propyl]-10,10a-dihydro-5H-imidazo[1,5-b]isoquinoline-1,3-dione] | > 100 |
| CN(CCCn1c(O)c2n(c1=O)Cc1ccccc1C2)c1ccccc1 [(S)-2-[3-(Methyl-phenyl-amino)-propyl]-10,10a-dihydro-5H-imidazo[1,5-b]isoquinoline-1,3-dione] | > 100 |
| CN(CCCCc1ccccc1)CCn1c(O)c2n(c1=O)Cc1ccccc1C2 [(S)-2-{2-[Methyl-(4-phenyl-butyl)-amino]-ethyl}-10,10a-dihydro-5H-imidazo[1,5-b]isoquinoline-1,3-dione] | 3.2 |
